Source: patent publication US4468399A, “2-[2-(2-Aminoalkyl-4-thiazolylmethylthio)alkyl]-amino-5-substituted-4-pyr imidones” (Eli Lilly and Company, priority 1983, dated 1984)

What was measured:
H2-receptor = settings: cited from earlier work; for H2-receptor antagonist activity in words: prior art
acid secretion = test: in vivo antisecretory assay, gastric fistula dogs, histamine-stimulated gastric secretion; settings: for antisecretory potency relative to cimetidine, iv route: iv infusion over 30 minute period, histamine iv infusion; for recovery of acid secretions from an effective dose: after 3-4 hours
Protocol: An in vivo assay for the antisecretory action of drugs on acid secretion utilizes gastric fistula dogs with a vagally innervated gastric fistula and vagally denervated Heidenthain pouch. A steady-state gastric secretion is produced by the iv infusion of histamine. The antisecretory drugs under test are given either intravenously by infusion over a 30 minute period or orally 75 min. prior to collection of gastric secretion from the fistula. In this assay, 2-[2-(2-dimethylaminomethyl-4-thiazolylmethylthio)ethyl]amino-5-(3-pyridyl)methyl-4-pyrimidone was 11X cimetidine by the iv route and 14X cimetidine orally. The 6-methyl-2-pyridyl analog was 14.4X cimetidine intravenously.

H2 receptor [1] = biological target: T1, H2 receptor (Rattus norvegicus, UniProt P25102); test: H2 receptor blocking activity, histamine-induced relaxation of isolated rat uterine strips; format: cell-based, rat (female albino rats); settings: antagonist 10^-5 molar, 30 minutes, dissociation constant from dose ratio of histamine ED50; read-out: -logKb (converted)
T1 construct: uterine horns removed therefrom and suspended at ambient temperature in isolated organ baths; from tissue; host or cells: isolated uterine horn strips of estrone-treated female albino rats
Protocol: The following assay for H2 receptor blocking activity was employed. Female albino rats are treated with estrone 24 hours prior to the initiation of the experiment. The rats are sacrificed and the uterine horns removed therefrom and suspended at ambient temperature in isolated organ baths containing De Jalon's solution. After equilibration, the uterine strips are exposed to 50 millimole aqueous potassium chloride, which produces a sustained contraction. When the uterus is so contracted, histamine produces a dosedependent H2 receptor-mediated relaxation. A control dose-response curve to histamine is constructed on each tissue. Following thorough washout of the histamine after obtaining the control dose-response curve, each antagonist (a compound of this invention) is added for 30 minutes at a concentration of 10^-5 molar. The uterine strips are then contracted with aqueous potassium chloride in the presence of the antagonist and a second dose-response curve to histamine obtained. In the presence of a competitive antagonist, the dose-response curve to histamine is shifted in parallel to the right with no depression of the maximum relative to the control curve. The dose ratio (DR) is calculated for each concentration of antagonist by dividing the ED50 of histamine in the presence of the competitive antagonist by the control ED50 for histamine. The dissociation constant (KB) of the antagonist is calculated from the dose-ratios by the following equation: […]
Cimetidine is included as an internal standard.
In the table, column 1 gives the name of the compound under test and column 2, the -logKb value for that compound.

H2 receptor [2] = test: H2 receptor blocking activity, isolated bullfrog gastric mucosa, histamine-stimulated acid secretion; format: cell-based, bullfrog (Rana catesbeiana); settings: inhibition of acid secretion stimulated by 10^-5 M histamine; antagonist in serosal chamber; read-out: ED50 (the source's name)
Protocol: A second assay for H2 receptor blocking activity employs the isolated bullfrog gastric mucosa--see Warrick and Lin, Communications in Chem. Pathology and Pharmacology, 13, 149 (1976). The assay is carried out as follows: The gastric mucosa of the bullfrog (Rana catesbeiana) is separated from the musculature of the stomach and placed between a pair of Ussing chambers made of lucite. The chambers are filled with frog Ringer solution and acid secretion is stimulated by addition of histamine to the serosal side of the mucosa at a final concentration of 10^-5 M. Acid output is automatically titrated to pH 4.5. After steady response to 10^-5 M of histamine is established, the antagonist (a compound of this invention) is added to the serosal chamber and the maximal inhibition by each concentration of the H2 -antagonist is recorded. From the dose-response curve, the ED50 of the drug is calculated.
In Table 2, column 1 gives the substituent at 6 in the pyrimidone ring, column 2 the "B" group (see formula at the head of the Table), and column 3 the molar ED50.

T1 sequence (P25102 whole entry): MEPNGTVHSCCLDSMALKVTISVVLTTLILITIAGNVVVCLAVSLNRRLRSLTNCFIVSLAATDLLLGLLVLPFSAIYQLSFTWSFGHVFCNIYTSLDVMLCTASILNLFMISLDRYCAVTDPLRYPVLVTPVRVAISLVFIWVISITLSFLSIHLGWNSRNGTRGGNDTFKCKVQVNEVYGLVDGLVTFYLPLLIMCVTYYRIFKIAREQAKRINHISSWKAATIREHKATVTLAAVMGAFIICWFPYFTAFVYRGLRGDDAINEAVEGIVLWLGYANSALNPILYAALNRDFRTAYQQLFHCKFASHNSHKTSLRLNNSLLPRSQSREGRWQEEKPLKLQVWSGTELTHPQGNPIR

Row | SMILES | Kd (H2 receptor [1]) [nM] | IC50 (H2 receptor [2]) [nM] | also measured
1 | C#CCNC(=C[N+](=O)[O-])NCCSCc1ccc(CN(C)C)o1 [1-nitro-2-(2-propynylamino)-2-(2-[(5-dimethylaminomethyl-2-furyl)methylthio]ethylamino)ethylene] |  |  | activity relative to cimetidine in a standard H2-receptor assay (H2-receptor; U.S. Pat. No. 4,203,909): 7.45 times the activity of cimetidine
2 | CNC(=NC#N)NCCSCc1csc(NC(=N)N)n1 [2-guanidino-4-[2-(2-cyano-3-methylguanidino)ethylthiomethyl]thiazole] |  |  | H2-receptor antagonist activity in words (H2-receptor): greatly increased activity over cimetidine
3 | Cc1cccc(Cc2c[nH]c(NCCSCc3csc(CN(C)C)n3)nc2=O)n1 [6-methyl-2-pyridyl analog] |  |  | antisecretory potency relative to cimetidine, iv route (acid secretion): 14.4 X cimetidine
4 | CN(C)Cc1nc(CSCCNc2ncc(Cc3cccnc3)c(=O)[nH]2)cs1 [Example 1, 2-[2-(2-dimethylaminomethyl-4-thiazolylmethylthio)ethyl]amino-5-(3-pyridyl)methyl-4-pyrimidone] | 1.1 | 115 | recovery of acid secretions from an effective dose (acid secretion): about 25%; antisecretory potency relative to cimetidine, iv route (acid secretion): 11 X cimetidine; antisecretory potency relative to cimetidine, orally (acid secretion; orally 75 min. prior to collection of gastric secretion): 14 X cimetidine
5 | CN(C)Cc1nc(CSCCNc2nc(=O)c(Cc3ccc4c(c3)OCO4)c[nH]2)cs1 [Example 2, 2-[2-(2-dimethylaminomethyl-4-thiazolylmethylthio)ethyl]amino-5-[5-(1,3-benzodioxoly)]methyl-4-pyrimidone] | 4.37 | 11100 | 
6 | Cc1ccc(Cc2cnc(NCCSCc3csc(CN(C)C)n3)[nH]c2=O)cn1 [Example 3, 2-[2-(2-dimethylaminomethyl-4-thiazolylmethylthio)ethyl]amino-5-(6-methyl-3-pyridyl)methyl-4-pyrimidone] | 11.2 | 1350 | 
7 | CNC(=S)NCCCCc1cnc[nH]1 [burimamide] |  |  | H2-receptor antagonist activity in words (H2-receptor): powerful H2 -receptor antagonist
8 | CNC(=NCCSCc1nc[nH]c1C)NC#N [cimetidine, N-cyano-N'-methyl-N"-[2-([(5-methyl-1H-imidazol-4-yl)methyl]thio)ethyl]guanidine, reference compound] |  |  | recovery of acid secretions from an effective dose (acid secretion): ~50%

More lines, main results first:

Row | Kd (H2 receptor [1]) [nM] | IC50 (H2 receptor [2]) [nM] | SMILES | also measured
9 | 60.3 | 12600 | COc1ccc(Cc2cnc(NCCSCc3csc(CN(C)C)n3)[nH]c2=O)cn1 [Example 4, 2-[2-(2-dimethylaminomethyl-4-thiazolylmethylthio)ethyl]amino-5-(6-methoxy-3-pyridyl)methyl-4-pyrimidone] | 
10 | 3.89 | 2350 | Cc1cc(Cc2cnc(NCCSCc3csc(CN(C)C)n3)[nH]c2=O)cnc1C [Example 5, 2-[2-(2-dimethylaminomethyl-4-thiazolylmethylthio)ethyl]amino-5-(5,6-dimethyl-3-pyridyl)methyl-4-pyrimidone] | 
11 |  | 252 | CN(C)Cc1nc(CSCCNc2ncc(Cc3ccc(O)nc3)c(=O)[nH]2)cs1 [Example 6, 2-[2-(2-dimethylaminomethyl-4-thiazolylmethylthio)ethyl]amino-5-(6-hydroxy-3-pyridyl)methyl-4-pyrimidone] | 
12 |  | 3000 | COc1cc(Cc2cnc(NCCSCc3csc(CN(C)C)n3)[nH]c2=O)ccn1 [Example 7, 2-[2-(2-dimethylaminomethyl-4-thiazolylmethylthio)ethyl]amino-5-(2-methoxy-4-pyridyl)methyl-4-pyrimidone] | 
13 |  | 2000 | Cc1nc(NCCSCc2csc(CN(C)C)n2)[nH]c(=O)c1Cc1cccnc1 [Example 8, 2-[2-(2-dimethylaminomethyl-4-thiazolylmethylthio)ethyl]amino-5-(3-pyridyl)methyl-6-methyl-4-pyrimidone] | 
14 |  | 603 | CN(C)Cc1nc(CSCCNc2ncc(Cc3ccnc(O)c3)c(=O)[nH]2)cs1 [Example 9, 2-[2-(2-dimethylaminomethyl-4-thiazolylmethylthio)ethyl]amino-5-(2-hydroxy-4-pyridyl)methyl-4-pyrimidone] | 
15 | 17.4 | 163 | CN(C)Cc1nc(CSCCNc2ncc(Cc3ccccn3)c(=O)[nH]2)cs1 [Example 10, 2-[2-(2-dimethylaminomethyl-4-thiazolylmethylthio)ethyl]amino-5-(2-pyridyl)methyl-4-pyrimidone] | 
16 | 12.9 | 196 | CN(C)Cc1nc(CSCCNc2ncc(Cc3ccncc3)c(=O)[nH]2)cs1 [Example 11, 2-[2-(2-dimethylaminomethyl-4-thiazolylmethylthio)ethyl]amino-5-(4-pyridyl)methyl-4-pyrimidone] | 
